Test results reported in ChEMBL document CHEMBL4138187, “Novel 2-(2-arylmethylthio-4-chloro-5-methylbenzenesulfonyl)-1-(1,3,5-triazin-2-ylamino)guanidine derivatives: Inhibition of human carbonic anhydrase cytosolic isozymes I and II and the transmembrane tumor-associated isozymes IX and XII, anticancer activity, and molecular modeling studies” (Eur J Med Chem, 2018).

system: MCF7; assay: Cytotoxicity against human MCF7 cells after 72 hrs by MTT assay; type: functional, cell-based; settings: MCF7, 72 h

SMILES | IC50 [nM]
N/C(=N\S(=O)(=O)c1ccccc1SCc1cccc(C(F)(F)F)c1)NNc1nc(Cl)nc(Nc2ccc(S(N)(=O)=O)cc2)n1 | > 100000
N/C(=N\S(=O)(=O)c1ccccc1SCc1ccc(C(F)(F)F)cc1)NNc1nc(Cl)nc(Nc2cccc(S(N)(=O)=O)c2)n1 | > 100000
N/C(=N\S(=O)(=O)c1ccccc1SCc1cccc(C(F)(F)F)c1)NNc1nc(Cl)nc(NCc2ccc(S(N)(=O)=O)cc2)n1 | > 100000
N/C(=N\S(=O)(=O)c1ccccc1SCc1cccc2ccccc12)NNc1nc(Cl)nc(NCc2ccc(S(N)(=O)=O)cc2)n1 | > 100000
N/C(=N\S(=O)(=O)c1ccccc1SCc1ccccc1)NNc1nc(Cl)nc(Nc2ccc(S(N)(=O)=O)cc2)n1 | > 100000
N/C(=N\S(=O)(=O)c1ccccc1SCc1cccc(C(F)(F)F)c1)NNc1nc(Cl)nc(Nc2cccc(S(N)(=O)=O)c2)n1 | > 100000
N/C(=N\S(=O)(=O)c1ccccc1SCc1ccccc1)NNc1nc(Cl)nc(NCc2ccc(S(N)(=O)=O)cc2)n1 | > 100000
N/C(=N\S(=O)(=O)c1ccccc1SCc1cccc2ccccc12)NNc1nc(Cl)nc(Nc2cccc(S(N)(=O)=O)c2)n1 | > 100000
N/C(=N\S(=O)(=O)c1ccccc1SCc1ccc(C(F)(F)F)cc1)NNc1nc(Cl)nc(NCc2ccc(S(N)(=O)=O)cc2)n1 | > 100000
N/C(=N\S(=O)(=O)c1ccccc1SCc1ccc(C(F)(F)F)cc1)NNc1nc(Cl)nc(Nc2ccc(S(N)(=O)=O)cc2)n1 | > 100000
N/C(=N\S(=O)(=O)c1ccccc1SCc1ccccc1)NNc1nc(Cl)nc(Nc2cccc(S(N)(=O)=O)c2)n1 | > 100000

system: HeLa; assay: Cytotoxicity against human HeLa cells after 72 hrs by MTT assay; type: functional, cell-based; settings: not given

SMILES | IC50 [nM]
N/C(=N\S(=O)(=O)c1ccccc1SCc1cccc(C(F)(F)F)c1)NNc1nc(Cl)nc(Nc2ccc(S(N)(=O)=O)cc2)n1 | > 100000
N/C(=N\S(=O)(=O)c1ccccc1SCc1ccc(C(F)(F)F)cc1)NNc1nc(Cl)nc(Nc2cccc(S(N)(=O)=O)c2)n1 | > 100000
N/C(=N\S(=O)(=O)c1ccccc1SCc1cccc(C(F)(F)F)c1)NNc1nc(Cl)nc(NCc2ccc(S(N)(=O)=O)cc2)n1 | > 100000
N/C(=N\S(=O)(=O)c1ccccc1SCc1cccc2ccccc12)NNc1nc(Cl)nc(NCc2ccc(S(N)(=O)=O)cc2)n1 | > 100000
N/C(=N\S(=O)(=O)c1ccccc1SCc1cccc2ccccc12)NNc1nc(Cl)nc(Nc2ccc(S(N)(=O)=O)cc2)n1 | 17000
N/C(=N\S(=O)(=O)c1ccccc1SCc1ccccc1)NNc1nc(Cl)nc(Nc2ccc(S(N)(=O)=O)cc2)n1 | > 100000
N/C(=N\S(=O)(=O)c1ccccc1SCc1cccc(C(F)(F)F)c1)NNc1nc(Cl)nc(Nc2cccc(S(N)(=O)=O)c2)n1 | > 100000
N/C(=N\S(=O)(=O)c1ccccc1SCc1ccccc1)NNc1nc(Cl)nc(NCc2ccc(S(N)(=O)=O)cc2)n1 | > 100000
N/C(=N\S(=O)(=O)c1ccccc1SCc1cccc2ccccc12)NNc1nc(Cl)nc(Nc2cccc(S(N)(=O)=O)c2)n1 | > 100000
N/C(=N\S(=O)(=O)c1ccccc1SCc1ccc(C(F)(F)F)cc1)NNc1nc(Cl)nc(NCc2ccc(S(N)(=O)=O)cc2)n1 | > 100000
N/C(=N\S(=O)(=O)c1ccccc1SCc1ccc(C(F)(F)F)cc1)NNc1nc(Cl)nc(Nc2ccc(S(N)(=O)=O)cc2)n1 | > 100000
N/C(=N\S(=O)(=O)c1ccccc1SCc1ccccc1)NNc1nc(Cl)nc(Nc2cccc(S(N)(=O)=O)c2)n1 | > 100000

molecular target: Carbonic anhydrase 2 (Homo sapiens, UniProt P00918); settings: not given

SMILES | Ki [nM]
N/C(=N\S(=O)(=O)c1ccccc1SCc1ccc(C(F)(F)F)cc1)NNc1nc(Cl)nc(Nc2cccc(S(N)(=O)=O)c2)n1 | 326
N/C(=N\S(=O)(=O)c1ccccc1SCc1cccc2ccccc12)NNc1nc(Cl)nc(NCc2ccc(S(N)(=O)=O)cc2)n1 | 187
N/C(=N\S(=O)(=O)c1ccccc1SCc1cccc2ccccc12)NNc1nc(Cl)nc(Nc2ccc(S(N)(=O)=O)cc2)n1 | 161
N/C(=N\S(=O)(=O)c1ccccc1SCc1ccccc1)NNc1nc(Cl)nc(Nc2ccc(S(N)(=O)=O)cc2)n1 | 83.7
N/C(=N\S(=O)(=O)c1ccccc1SCc1cccc2ccccc12)NNc1nc(Cl)nc(Nc2cccc(S(N)(=O)=O)c2)n1 | 933
N/C(=N\S(=O)(=O)c1ccccc1SCc1ccc(C(F)(F)F)cc1)NNc1nc(Cl)nc(NCc2ccc(S(N)(=O)=O)cc2)n1 | 89.5
N/C(=N\S(=O)(=O)c1ccccc1SCc1ccccc1)NNc1nc(Cl)nc(Nc2cccc(S(N)(=O)=O)c2)n1 | 94.7

Now those with a lower Ki, led by results:

Ki [nM] | SMILES
7.4 | N/C(=N\S(=O)(=O)c1ccccc1SCc1cccc(C(F)(F)F)c1)NNc1nc(Cl)nc(Nc2ccc(S(N)(=O)=O)cc2)n1
5.4 | N/C(=N\S(=O)(=O)c1ccccc1SCc1cccc(C(F)(F)F)c1)NNc1nc(Cl)nc(NCc2ccc(S(N)(=O)=O)cc2)n1
9.3 | N/C(=N\S(=O)(=O)c1ccccc1SCc1cccc(C(F)(F)F)c1)NNc1nc(Cl)nc(Nc2cccc(S(N)(=O)=O)c2)n1
38.8 | N/C(=N\S(=O)(=O)c1ccccc1SCc1ccccc1)NNc1nc(Cl)nc(NCc2ccc(S(N)(=O)=O)cc2)n1
22 | N/C(=N\S(=O)(=O)c1ccccc1SCc1ccc(C(F)(F)F)cc1)NNc1nc(Cl)nc(Nc2ccc(S(N)(=O)=O)cc2)n1

system: HCT-116; assay: Cytotoxicity against human HCT116 cells after 72 hrs by MTT assay; type: functional, cell-based; settings: HCT-116, 72 h

SMILES | IC50 [nM]
N/C(=N\S(=O)(=O)c1ccccc1SCc1cccc(C(F)(F)F)c1)NNc1nc(Cl)nc(Nc2ccc(S(N)(=O)=O)cc2)n1 | > 100000
N/C(=N\S(=O)(=O)c1ccccc1SCc1ccc(C(F)(F)F)cc1)NNc1nc(Cl)nc(Nc2cccc(S(N)(=O)=O)c2)n1 | > 100000
N/C(=N\S(=O)(=O)c1ccccc1SCc1cccc(C(F)(F)F)c1)NNc1nc(Cl)nc(NCc2ccc(S(N)(=O)=O)cc2)n1 | > 100000
N/C(=N\S(=O)(=O)c1ccccc1SCc1cccc2ccccc12)NNc1nc(Cl)nc(NCc2ccc(S(N)(=O)=O)cc2)n1 | > 100000
N/C(=N\S(=O)(=O)c1ccccc1SCc1ccccc1)NNc1nc(Cl)nc(Nc2ccc(S(N)(=O)=O)cc2)n1 | > 100000
N/C(=N\S(=O)(=O)c1ccccc1SCc1cccc(C(F)(F)F)c1)NNc1nc(Cl)nc(Nc2cccc(S(N)(=O)=O)c2)n1 | > 100000
N/C(=N\S(=O)(=O)c1ccccc1SCc1ccccc1)NNc1nc(Cl)nc(NCc2ccc(S(N)(=O)=O)cc2)n1 | > 100000
N/C(=N\S(=O)(=O)c1ccccc1SCc1cccc2ccccc12)NNc1nc(Cl)nc(Nc2cccc(S(N)(=O)=O)c2)n1 | > 100000
N/C(=N\S(=O)(=O)c1ccccc1SCc1ccc(C(F)(F)F)cc1)NNc1nc(Cl)nc(NCc2ccc(S(N)(=O)=O)cc2)n1 | > 100000
N/C(=N\S(=O)(=O)c1ccccc1SCc1ccc(C(F)(F)F)cc1)NNc1nc(Cl)nc(Nc2ccc(S(N)(=O)=O)cc2)n1 | > 100000
N/C(=N\S(=O)(=O)c1ccccc1SCc1ccccc1)NNc1nc(Cl)nc(Nc2cccc(S(N)(=O)=O)c2)n1 | > 100000

molecular target: Carbonic anhydrase 1 (Homo sapiens, UniProt P00915); settings: not given
Sequence (P00915 whole entry): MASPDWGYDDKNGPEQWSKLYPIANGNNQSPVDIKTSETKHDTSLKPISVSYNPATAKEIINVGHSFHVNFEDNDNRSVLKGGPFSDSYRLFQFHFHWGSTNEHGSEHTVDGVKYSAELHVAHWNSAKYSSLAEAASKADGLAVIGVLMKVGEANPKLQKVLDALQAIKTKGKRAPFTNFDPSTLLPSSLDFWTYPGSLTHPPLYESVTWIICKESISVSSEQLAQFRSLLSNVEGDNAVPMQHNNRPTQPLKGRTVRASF

SMILES | Ki [nM]
N/C(=N\S(=O)(=O)c1ccccc1SCc1ccc(C(F)(F)F)cc1)NNc1nc(Cl)nc(Nc2cccc(S(N)(=O)=O)c2)n1 | 536
N/C(=N\S(=O)(=O)c1ccccc1SCc1cccc2ccccc12)NNc1nc(Cl)nc(NCc2ccc(S(N)(=O)=O)cc2)n1 | 2140
N/C(=N\S(=O)(=O)c1ccccc1SCc1cccc2ccccc12)NNc1nc(Cl)nc(Nc2ccc(S(N)(=O)=O)cc2)n1 | 733
N/C(=N\S(=O)(=O)c1ccccc1SCc1ccccc1)NNc1nc(Cl)nc(Nc2ccc(S(N)(=O)=O)cc2)n1 | 66.6
N/C(=N\S(=O)(=O)c1ccccc1SCc1cccc2ccccc12)NNc1nc(Cl)nc(Nc2cccc(S(N)(=O)=O)c2)n1 | 3340
N/C(=N\S(=O)(=O)c1ccccc1SCc1ccc(C(F)(F)F)cc1)NNc1nc(Cl)nc(NCc2ccc(S(N)(=O)=O)cc2)n1 | 514
N/C(=N\S(=O)(=O)c1ccccc1SCc1ccccc1)NNc1nc(Cl)nc(Nc2cccc(S(N)(=O)=O)c2)n1 | 396

Now from value to molecule:

Ki [nM] | SMILES
148 | N/C(=N\S(=O)(=O)c1ccccc1SCc1cccc(C(F)(F)F)c1)NNc1nc(Cl)nc(Nc2ccc(S(N)(=O)=O)cc2)n1
219 | N/C(=N\S(=O)(=O)c1ccccc1SCc1cccc(C(F)(F)F)c1)NNc1nc(Cl)nc(NCc2ccc(S(N)(=O)=O)cc2)n1
337 | N/C(=N\S(=O)(=O)c1ccccc1SCc1cccc(C(F)(F)F)c1)NNc1nc(Cl)nc(Nc2cccc(S(N)(=O)=O)c2)n1
294 | N/C(=N\S(=O)(=O)c1ccccc1SCc1ccccc1)NNc1nc(Cl)nc(NCc2ccc(S(N)(=O)=O)cc2)n1
386 | N/C(=N\S(=O)(=O)c1ccccc1SCc1ccc(C(F)(F)F)cc1)NNc1nc(Cl)nc(Nc2ccc(S(N)(=O)=O)cc2)n1

molecular target: Carbonic anhydrase 9 (Homo sapiens, UniProt Q16790); settings: not given

SMILES | Ki [nM]
N/C(=N\S(=O)(=O)c1ccccc1SCc1ccc(C(F)(F)F)cc1)NNc1nc(Cl)nc(Nc2cccc(S(N)(=O)=O)c2)n1 | 421
N/C(=N\S(=O)(=O)c1ccccc1SCc1cccc2ccccc12)NNc1nc(Cl)nc(NCc2ccc(S(N)(=O)=O)cc2)n1 | 383
N/C(=N\S(=O)(=O)c1ccccc1SCc1cccc2ccccc12)NNc1nc(Cl)nc(Nc2ccc(S(N)(=O)=O)cc2)n1 | 41.1
N/C(=N\S(=O)(=O)c1ccccc1SCc1ccccc1)NNc1nc(Cl)nc(Nc2ccc(S(N)(=O)=O)cc2)n1 | 39.4
N/C(=N\S(=O)(=O)c1ccccc1SCc1cccc2ccccc12)NNc1nc(Cl)nc(Nc2cccc(S(N)(=O)=O)c2)n1 | 3400
N/C(=N\S(=O)(=O)c1ccccc1SCc1ccc(C(F)(F)F)cc1)NNc1nc(Cl)nc(NCc2ccc(S(N)(=O)=O)cc2)n1 | 47.1
N/C(=N\S(=O)(=O)c1ccccc1SCc1ccccc1)NNc1nc(Cl)nc(Nc2cccc(S(N)(=O)=O)c2)n1 | 3970

Results, then the molecule that gave them:

Ki [nM] | SMILES
37.1 | N/C(=N\S(=O)(=O)c1ccccc1SCc1cccc(C(F)(F)F)c1)NNc1nc(Cl)nc(Nc2ccc(S(N)(=O)=O)cc2)n1
43.6 | N/C(=N\S(=O)(=O)c1ccccc1SCc1cccc(C(F)(F)F)c1)NNc1nc(Cl)nc(NCc2ccc(S(N)(=O)=O)cc2)n1
3340 | N/C(=N\S(=O)(=O)c1ccccc1SCc1cccc(C(F)(F)F)c1)NNc1nc(Cl)nc(Nc2cccc(S(N)(=O)=O)c2)n1
46.9 | N/C(=N\S(=O)(=O)c1ccccc1SCc1ccccc1)NNc1nc(Cl)nc(NCc2ccc(S(N)(=O)=O)cc2)n1
42.9 | N/C(=N\S(=O)(=O)c1ccccc1SCc1ccc(C(F)(F)F)cc1)NNc1nc(Cl)nc(Nc2ccc(S(N)(=O)=O)cc2)n1

system: HaCaT; assay: Cytotoxicity against human HaCaT cells after 72 hrs by MTT assay; type: cell-based; settings: not given

SMILES | IC50 [nM]
N/C(=N\S(=O)(=O)c1ccccc1SCc1cccc2ccccc12)NNc1nc(Cl)nc(Nc2ccc(S(N)(=O)=O)cc2)n1 | 61000
